In paper PMC8381248 (Frontiers in Pharmacology, 2021):

Legend:
[1] = tested on: PE-constricted aortic rings; test: Vasorelaxant effects on isolated PE-constricted aortic rings; set-up: species or system SD rats; conditions: 10^–6 M PE, n = 6
Protocol: SD rats were anesthetized by exposure to ether, and the thoracic aorta was removed and immersed in Krebs-Henseleit (K-H) buffer ([Lee et al., 2013]) at 4°C. The connective tissues and fats around the aorta were carefully removed under the microscopes, and the blood was flushed. The aorta ring was cut into four sections approximately 3 mm long and suspended in organ chambers containing K-H buffer. The endothelium was also removed by gently rubbing the lumen of the vessel with a cotton swab. The aortic rings were placed in a 5 ml organ chambers of DMT multiwire myograph system (620M, Danish Myo Technology, Denmark) and were filled with K-H buffer aerated with 95% O2 and 5% CO2 at 37°C. The aortic rings were mounted on hooks connected to a tension transducer and a displacement device.
The initial vessel tension was slowly adjusted to 15 mN and maintained balanced for 60 min. The buffer was renewed once every 15 min. After equilibration, the vessel viability was pre-constricted by exposing the aortic rings to 60 mM KCl for 10 min ([Ding et al., 2019]). Then, the K-H buffer was continuously renewed to elute and restore the initial tension of the vascular ring to assay the vascular activity. The pre-treated operation was repeated two times, where the constriction amplitude after each KCl stimulation to reach the previous constriction amplitude was taken as the criterion, before the experiment continued. Subsequently, 10^–6 M PE was added to contract the blood vessel. After the constriction was stable, different concentrations of Ach (10^−9–10^–5 M) were used to dilate the vessels. Then, the vasorelaxation degree could be calculated with different Ach concentrations, as the following equation: Vasorelaxation degree (%)=Maxium constriction tension induced by PE−Minium diastolic tension induced by Ach/Maxium constriction tension induced by PE−Resting tension×100% (10) When the vasorelaxation degree corresponding to Ach (10^–5 M) is greater than 80%, the vascular endothelium is considered intact and functional. The endothelium is considered to be removed with a vasorelaxation degree of less than 20% ([Lee et al., 2013]). Endothelium-intact and endothelium-denuded aortic rings from the same aorta were tested.
After equilibration, the endothelium-intact and the endothelium-denuded aortic rings were pre-constricted with 10^–6 M PE in the K-H buffer system.
After equilibration, the endothelium-intact aortic rings were pre-constricted with 10^–6 M PE in the K-H buffer system. […] Then, the corresponding vasoconstrictive responses were examined and recorded.
In the vasorelaxant effects investigations, all the data are presented as mean ± SEM. Statistical analysis was performed using two-way ANOVA followed by Fisher’s least significant difference (LSD) test. Values at p < 0.05 were considered statistically significant.

[2] = Urinary excretion study after intravenous administration; assay type: in vivo, Sprague-Dawley (SD) rats; conditions: IV 5 mg/kg; for excretion amount in urine: rat
Protocol: Eighteen male SD rats were housed in the barrier rodent facilities to acclimatize for a week in animal quarters, which had air conditioning and an automatically controlled photoperiod of 12 h of light daily. Rats had free access to standard chow diet and water until 12 h prior to the beginning of the experiment, at which time only water was accessed freely. The rats were randomly divided into six groups, with three rats in each group.
A series of calibration standard working solutions (20.0, 10.0, 2.0, 1.0, 0.2, 0.04, and 0.02 μg/ml) was prepared freshly by diluting the stock solution stepwise using ACN-water (70:30, v/v). […] The IS working solutions of 200 ng/ml of tolbutamide or 50 ng/ml of diclofenac sodium were prepared by dilution of the stock standard solution with acetonitrile solution. All the solutions were stored at 4°C and brought to room temperature before use.
QC samples (3, 40, 800, and 1,600 ng/ml) were prepared separately. For PDG urine samples, the calibration standards were prepared by spiking 5 μL of the appropriate standard working solutions of PDG to 95 μL blank rat urine to prepare the final urine concentration of PDG ranging from 1 ng/ml to 2000 ng/ml. QC samples (3, 40, 800, and 1,600 ng/ml) were prepared separately. […] QC samples (15, 30, 400, and 1,600 ng/ml) were prepared separately.
Urine samples were collected while the rats remained isolated in metabolic cages at intervals of 0, 2, 4, 8, 24, and 30 h after administration, and the volumes of the urine were measured. The urine samples were also stored at −20°C before tested by LC-MS/MS. For the urine calibration standards, QC urine samples, and the testing urine samples, 100 µL of the urine samples were extracted with 300 µL of methyl tert-butyl ether (MTBE) by vortex mixing for 1 min and centrifuged at 4°C for 10 min at 13,000 rpm. Then, 200 µL of the supernatant was separated and evaporated under a gentle stream of nitrogen. The residue was reconstituted with 120 µL of 30% ACN with 5 µL of IS working solution ([…]), followed by vortex mixing for 10 min.
Linear gradient elution was performed with certain portions of 10 mM ammonium acetate-water solution containing 0.1% formic acid (mobile phase A) and methanol (mobile phase B). The detailed conditions have been described in Support Materials (Supplementary Table S5).

[3] = Kinetic solubility test in PBS; assay type: physicochemical; conditions: phosphate-buffer saline (PBS)
Protocol: Internal standard (IS) solutions (propranolol and tolbutamide) were dissolved by acetonitrile (50 ng/ml propranolol + 200 ng/ml tolbutamide).
The sample solutions were analyzed using LC-MS/MS. All the samples (test samples and references) for detection were prepared in duplicate. The conditions for LC-MS/MS are shown in Support Materials (Supplementary Table S1).

## COc1cc(C2OCC3C(c4ccc(OC5OC(CO)C(O)C(O)C5O)c(OC)c4)OCC23)ccc1OC1OC(CO)C(O)C(O)C1O (single isomer, unassigned; (+)) [PDG, (+)-1-pinoresinol 4,4′-di-O-β-D-glucopyranoside]
[1]; increasing concentration 25–200 μM
  vasorelaxant effect on PE-constricted aortic rings: concentration-dependent vasorelaxation
[1]; PINL difference at 50–100 μM
  vasorelaxation degree, endothelium-denuded versus endothelium-intact group: not statistically significant
[2]; rat urine, for 30 h
  cumulative urinary excretion, % of the dose: approximately 78.24%
[2]; rat urine, within 30 h, n = 3
  Cumulative Excretion Amount: 807,789.5 ± 65,828.8 ng
[2]; 0–2 h, n = 3
  excretion amount in urine: 503,669.8 ± 292,869.4 ng
[2]; 2–4 h, n = 3
  excretion amount in urine: 274,878.3 ± 236,625.8 ng
[2]; 4–8 h, n = 3
  excretion amount in urine: 989.1 ± 1,053.6 ng
[2]; 8–24 h, n = 3
  excretion amount in urine: 2,596.9 ± 1776.4 ng
[2]; 24–30 h, n = 3
  excretion amount in urine: 245.1 ± 173.0 ng
[2]; Wash, n = 3
  excretion amount in urine: 25,410.3 ± 5,874.3 ng
[3]; aqueous buffer, kinetic from dmso stock, PBS (100 mM, pH 7.4)
  solubility kinetic: 99.5 ± 14 µg/mL
[3]; aqueous buffer, kinetic from dmso stock, PBS (pH 7.4), μg/ml value expressed in µM
  solubility kinetic: ~146 µM
[3]; PBS (pH 7.4), μg/ml value expressed in µM
  solubility kinetic: > 100 µM
